Tests used:
[1] = target: T1, GAL4-PPARδ (Homo sapiens, UniProt Q03181); assay: Cellular PPAR transactivation assay, GAL4-PPARδ chimera in CHO-K1 cells; type: cell-based; settings: for Emax: CHO-K1, maximum effect relative to reference compound (Example 73 of EP 1 452 521-A1 = 100%), read-out: PPARδ efficacy; for EC50: CHO-K1 cells, luciferase reporter, 6 h stimulation
T1 construct: PPARδ (amino acids 138-442); expressed in transfected cells
T1 sequence (Q03181 138-441 limits assumed): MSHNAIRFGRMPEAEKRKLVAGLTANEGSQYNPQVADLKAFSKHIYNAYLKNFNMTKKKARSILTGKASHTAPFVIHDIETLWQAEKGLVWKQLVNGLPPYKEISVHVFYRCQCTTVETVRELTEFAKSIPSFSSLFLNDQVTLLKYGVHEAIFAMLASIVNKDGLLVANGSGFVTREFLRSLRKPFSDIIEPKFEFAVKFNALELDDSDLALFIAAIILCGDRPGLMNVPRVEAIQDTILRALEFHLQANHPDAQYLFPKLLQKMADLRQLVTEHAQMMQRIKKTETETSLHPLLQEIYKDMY
Source text: (§1) A cellular assay is used to test for potentially activating properties of the compounds according to the invention with respect to the three human isoforms of the peroxisome proliferator-activated receptors (PPARα, PPARγ and PPARδ).
(§2) Since mammalian cells contain different endogenous nuclear receptors which may complicate an unambiguous interpretation of the results, an established chimera system is used in which the respective ligand binding domain of the human PPAR isoforms is fused to the DNA binding domain of the yeast transcription factor GAL4. The resulting GAL4-PPARα, γ and δ chimeras are co-transfected and stably expressed in CHO cells having a reporter construct.
(§3) The GAL4-PPAR expression constructs contain the ligand binding domain of PPARα (amino acids 167-468), PPARγ (amino acids 203-506) and PPARδ (amino acids 138-442) which are PCR-amplified and cloned into the vector pcDNA3.1. The respective expression vectors already contain the GAL4 DNA binding domain (amino acids 1-147) of the vector pFC2-dbd (Stratagene). The reporter construct, which contains five copies of the GAL4 binding site upstream of a thymidine kinase promoter, expresses firefly luciferase (Photinus pyralis) following activation and binding of GAL4-PPARα, γ or δ.
(§4) The day before the test, CHO-K1 cells (chinese hamster ovary; ATCC CCL-61) each stably expressing one of the above-described GAL4-PPAR chimeras and the luciferase reporter gene construct are sown in medium [Optimem (GIBCO) with 2% activated carbon-purified foetal calf serum (Hyclone), 1.35 mM sodium pyruvate (GIBCO) and 0.2% sodium bicarbonate (GIBCO)] in a density of 1×10^3 cells in 96-well microtitre plates (Greiner) and kept in a cell incubator (96% atmospheric humidity, 5% v/v CO2, 37° C.). On the test day, the substances to be tested are taken up in the medium mentioned above, but without addition of calf serum, and added in various concentrations to the cells. After a stimulation period of 6 h, the luciferase activity is measured using a video camera. The relative light units measured give, as a function of the substance concentration, a sigmoidal stimulation curve. The EC50 values are calculated using the computer programme GraphPad PRISM (Version 3.02). The maximum effect of a test substance in the respective PPAR assay is determined as efficacy in percent in comparison to an appropriate reference compound whose maximum effect is defined as 100%.
(§5) The reference compound selected here was the compound 2-(3-{[(2-chloro-4-propoxybenzoyl)-amino]methyl}-4-ethoxybenzyl)tetrahydrofuran-2-carboxylic acid [Example 73 of EP 1 452 521-A1] which is described in the prior art as a potent pan-PPAR agonist.

[2] = target: T2, sGC (Rattus norvegicus, UniProt P20595); assay: Action at a recombinant guanylate cyclase reporter cell line (CHO reporter cell); type: cell-based; settings: CHO reporter cell in vitro
T2 construct: expressed in transfected cells; host or cells: CHO reporter cell
T2 sequence (P19686 whole entry partner): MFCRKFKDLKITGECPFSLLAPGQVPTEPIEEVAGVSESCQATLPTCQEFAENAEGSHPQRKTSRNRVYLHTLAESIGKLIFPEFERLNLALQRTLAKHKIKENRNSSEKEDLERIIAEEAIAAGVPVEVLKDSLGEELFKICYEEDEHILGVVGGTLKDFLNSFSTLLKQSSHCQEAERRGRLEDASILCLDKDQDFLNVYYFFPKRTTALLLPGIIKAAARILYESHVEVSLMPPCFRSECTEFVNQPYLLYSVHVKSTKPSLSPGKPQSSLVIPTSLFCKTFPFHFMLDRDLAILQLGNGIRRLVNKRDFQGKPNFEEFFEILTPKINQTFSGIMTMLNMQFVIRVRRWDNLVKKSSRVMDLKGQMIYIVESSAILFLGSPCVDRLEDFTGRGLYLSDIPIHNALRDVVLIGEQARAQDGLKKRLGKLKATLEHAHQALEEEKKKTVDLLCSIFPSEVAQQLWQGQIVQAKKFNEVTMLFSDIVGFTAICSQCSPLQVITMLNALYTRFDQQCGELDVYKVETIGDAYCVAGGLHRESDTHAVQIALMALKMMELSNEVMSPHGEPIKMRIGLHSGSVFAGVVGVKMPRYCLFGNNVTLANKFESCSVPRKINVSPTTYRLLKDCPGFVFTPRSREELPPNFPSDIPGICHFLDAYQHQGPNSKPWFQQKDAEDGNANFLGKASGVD
T2 sequence (P20595 whole entry): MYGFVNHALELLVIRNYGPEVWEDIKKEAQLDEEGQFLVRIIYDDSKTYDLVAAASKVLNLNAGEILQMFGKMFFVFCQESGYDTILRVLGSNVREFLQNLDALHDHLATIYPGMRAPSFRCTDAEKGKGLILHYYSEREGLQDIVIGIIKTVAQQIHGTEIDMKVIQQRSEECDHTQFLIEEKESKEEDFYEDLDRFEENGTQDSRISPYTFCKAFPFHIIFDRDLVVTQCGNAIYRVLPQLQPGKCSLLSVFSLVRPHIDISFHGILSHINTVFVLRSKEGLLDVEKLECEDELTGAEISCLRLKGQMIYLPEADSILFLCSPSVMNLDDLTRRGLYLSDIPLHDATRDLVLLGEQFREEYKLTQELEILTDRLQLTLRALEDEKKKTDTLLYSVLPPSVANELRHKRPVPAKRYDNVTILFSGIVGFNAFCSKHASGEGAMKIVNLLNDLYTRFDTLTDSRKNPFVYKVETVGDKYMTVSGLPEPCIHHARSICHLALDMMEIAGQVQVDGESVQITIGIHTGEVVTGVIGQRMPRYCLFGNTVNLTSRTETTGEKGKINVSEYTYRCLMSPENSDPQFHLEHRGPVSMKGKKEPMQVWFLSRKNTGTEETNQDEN
Description: The cellular action of the compounds according to the invention is determined at a recombinant guanylate cyclase reporter cell line, as described in F. Wunder et al., Anal. Biochem. 339, 104-112 (2005).

[3] = target: T3, soluble guanylate cyclase (sGC) (Rattus norvegicus, UniProt P20595); assay: Stimulation of sGC enzyme activity (PPi detection, luciferase); type: biochemical; settings: sGC enzyme in vitro; for EC50: read-out: EC50 (concentration at 50% of maximum efficacy), activating action at the sGC enzyme
T3 construct: made in house; host or cells: Sf9 insect cells (baculovirus)
T3 sequence (P19686 whole entry partner): as the sequence (P19686 whole entry partner) above
T3 sequence (P20595 whole entry): as the sequence (P20595 whole entry) above
Description: Soluble guanylate cyclase (sGC) converts on stimulation GTP into cGMP and pyrophosphate (PPi). PPi is detected with the aid of the assay described below. The signal produced in the assay increases as the reaction progresses and serves as a measure of the sGC enzyme activity under the given stimulation.
To carry out the assay, 29 μl of enzyme solution [0-10 nM soluble guanylate cyclase (prepared according to Honicka et al., J. Mol. Med. 77, 14-23 (1999)) in 50 mM TEA, 2 mM MgCl2, 0.1% BSA (fraction V), 0.005% Brij®, pH 7.5] are initially introduced into a microplate, and 1 μl of the substance to be tested (as a serially diluted solution in DMSO) is added. The mixture is incubated at room temperature for 10 min. Then 20 μl of detection mix [1.2 nM Firefly Luciferase (Photinus pyralis luciferase, Promega), 29 μM dehydroluciferin (prepared according to Bitler & McElroy, Arch. Biochem. Biophys. 72, 358 (1957)), 122 μM luciferin (Promega), 153 μM ATP (Sigma) and 0.4 mM DTT (Sigma) in 50 mM TEA, 2 mM MgCl2, 0.1% BSA (fraction V), 0.005% Brij®, pH 7.5] are added. The enzyme reaction is started by adding 20 μl of substrate solution [1.25 mM guanosine 5′-triphosphate (Sigma) in 50 mM TEA, 2 mM MgCl2, 0.1% BSA (fraction V), 0.005% Brij®, pH 7.5] and measured continuously in a luminometer. The extent of the stimulation by the substance to be tested can be determined relative to the signal of the unstimulated reaction.
The activation of haem-free guanylate cyclase is examined by addition of 25 μM of 1H-1,2,4-oxadiazolo[4,3-a]quinoxalin-1-one (ODQ) to the enzyme solution and subsequent incubation for 30 minutes and compared to the stimulation of the native enzyme.

[4] = target: T4, GAL4-PPARγ (Homo sapiens, UniProt P37231); assay: Cellular PPAR transactivation assay, GAL4-PPARγ chimera in CHO-K1 cells; type: cell-based; settings: for Emax: CHO-K1, maximum effect relative to reference compound (Example 73 of EP 1 452 521-A1 = 100%), read-out: PPARγ efficacy; for EC50: CHO-K1 cells, luciferase reporter, 6 h stimulation
T4 construct: PPARγ (amino acids 203-506); expressed in transfected cells
T4 sequence (P37231 203-505 limits assumed): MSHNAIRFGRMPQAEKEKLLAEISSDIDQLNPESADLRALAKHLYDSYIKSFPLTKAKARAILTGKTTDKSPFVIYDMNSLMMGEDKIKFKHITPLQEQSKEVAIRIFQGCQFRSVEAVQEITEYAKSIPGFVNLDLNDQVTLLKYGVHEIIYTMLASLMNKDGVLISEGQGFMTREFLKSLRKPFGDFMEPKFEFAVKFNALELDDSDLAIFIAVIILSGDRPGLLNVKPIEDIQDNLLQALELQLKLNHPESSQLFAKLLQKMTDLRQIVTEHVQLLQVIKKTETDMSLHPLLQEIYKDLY
Source text: as §1, §2, §3, §4, §5

[5] = target: T5, GAL4-PPARα (Homo sapiens, UniProt Q07869); assay: Cellular PPAR transactivation assay, GAL4-PPARα chimera in CHO-K1 cells; type: cell-based; settings: for Emax: CHO-K1, maximum effect relative to reference compound (Example 73 of EP 1 452 521-A1 = 100%), read-out: PPARα efficacy; for EC50: CHO-K1 cells, luciferase reporter, 6 h stimulation
T5 construct: expressed in transfected cells
T5 sequence (Q07869 167-468): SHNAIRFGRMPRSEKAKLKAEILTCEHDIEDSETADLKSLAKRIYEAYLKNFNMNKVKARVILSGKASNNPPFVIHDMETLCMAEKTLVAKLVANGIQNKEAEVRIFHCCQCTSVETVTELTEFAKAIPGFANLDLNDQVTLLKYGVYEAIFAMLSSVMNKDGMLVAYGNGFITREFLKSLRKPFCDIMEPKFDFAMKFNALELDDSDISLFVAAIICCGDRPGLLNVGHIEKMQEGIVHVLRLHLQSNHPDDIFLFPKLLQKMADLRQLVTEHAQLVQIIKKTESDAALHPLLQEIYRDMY
Source text: as §1, §2, §3, §4, §5

SMILES | Emax [1] | EC50 [1] | MEC (minimum effective concentration), sGC-activating activity in the CHO reporter cell [2] | MEC (minimum effective concentration), activating action at the sGC enzyme [3] | EC50 [3] | Emax [4] | EC50 [4] | Emax [5] | EC50 [5]
COC(c1ccc(Cl)c(NC(=O)[C@H](c2ccc(Cl)cc2)[C@@H](C)C(F)(F)F)c1)C1(C(=O)O)CCC1 (single isomer, unassigned) [Example 107] | 0% | > 10000 nM | 3 nM | 22 nM | 330 nM | 10% | 2000 nM | 0% | > 10000 nM
[2H]C([2H])([2H])OC(c1ccc(Cl)c(NC(=O)[C@H](c2ccc(Cl)cc2)[C@@H](C)C(F)(F)F)c1)C1(C(=O)O)CCC1 (single isomer, unassigned) [Example 105] | 0% | > 10000 nM | 3 nM | 36 nM | 240 nM | 10% | – | 0% | > 10000 nM
COC(c1ccc(Cl)c(NC(=O)[C@H](c2ccc(Cl)cc2)[C@@H](C)C(F)(F)F)c1)C1(C(=O)O)CC1 (single isomer, unassigned; (+)) [Example 89] | 0% | > 10000 nM | 3 nM | 3.9 nM | 70 nM | 0% | > 10000 nM | 0% | > 10000 nM

Further lines, results first:

Emax [1] | EC50 [1] | MEC (minimum effective concentration), sGC-activating activity in the CHO reporter cell [2] | MEC (minimum effective concentration), activating action at the sGC enzyme [3] | EC50 [3] | Emax [4] | EC50 [4] | Emax [5] | EC50 [5] | SMILES
0% | > 10000 nM | 1 nM | 2.6 nM | 45 nM | 0% | > 10000 nM | 0% | > 10000 nM | O=C(Nc1cc(CC2(C(=O)O)CC2)ccc1F)[C@H](c1ccc(Cl)cc1)C1CCCC1(F)F (single isomer, unassigned; (+)) [Example 68]
0% | > 10000 nM | 1.7 nM | 3.4 nM | 44 nM | 20% | 2300 nM | 0% | > 10000 nM | CC(C(C(=O)Nc1cc(CC2(C(=O)O)CC2)ccc1Cl)c1ccc(CC(F)(F)F)cc1)C(F)(F)F (single isomer, unassigned) [Example 82, 1-[4-Chloro-3-({4,4,4-trifluoro-3-methyl-2-[4-(2,2,2-trifluoroethyl)phenyl]butanoyl}amino)-benzyl]cyclopropanecarboxylic acid]
0% | > 10000 nM | 1.7 nM | 3.8 nM | 83 nM | 0% | > 10000 nM | 0% | > 10000 nM | O=C(Nc1cc(CC2(C(=O)O)CC2)ccc1Cl)C(c1ccc(Cl)cc1)C1CCC(F)(F)C1 (single isomer, unassigned) [Example 73, 1-(4-Chloro-3-{[(4-chlorophenyl)(3,3-difluorocyclopentyl)acetyl]amino}benzyl)cyclopropane-carboxylic acid]
0% | > 10000 nM | 3 nM | 3.4 nM | 24 nM | 10% | 1800 nM | 0% | > 10000 nM | COc1cc([C@@H](C(=O)Nc2cc(CC3(C(=O)O)CC3)ccc2Cl)[C@@H](C)C(F)(F)F)ccc1Cl [Example 43, 1-(4-chloro-3-{[(2S,3R)-2-(4-chloro-3-methoxy-phenyl)-4,4,4-trifluoro-3-methylbutanoyl]amino}-benzyl)cyclopropanecarboxylic acid]
0% | > 10000 nM | 2.3 nM | 0.9 nM | 7.3 nM | 30% | 1900 nM | 0% | > 10000 nM | C[C@H]([C@H](C(=O)Nc1cc(CC2(C(=O)O)CC2)ccc1Cl)c1ccc(Cl)cc1F)C(F)(F)F [Example 32, (+)-1-(4-chloro-3-{[(2S,3R)-2-(4-chloro-2-fluoro-phenyl)-4,4,4-trifluoro-3-methylbutanoyl]-amino}benzyl)cyclopropanecarboxylic acid]
